# Measurements reported in patent publication US20170233628A1, “ENZYME DES[…] DES[…] PRODUCING SULFUR CONTAINING COMPOUNDS IN DOWNHOLE FLUIDS” (BAKER HUGHES INCORPORATED, priority 2016, published 2017).
# Test system: sulfur producing enzymes
# Assay: H2S production (colour of sample) by sterile, enzyme-containing SRB supernatant after treatment with inhibitors
# Format: biochemical, sulfate-reducing bacteria (SRBs) from produced water sources
# Conditions: sterile enzyme-containing supernatant in LB, 3 months at 37° C.
# Procedure: Now turning to the Figures, FIG. 1 illustrates the ability of sterile solutions to produce hydrogen sulfide (H2S). Six samples were formed with the following procedure. Each sample includes 100 mL of lysogeny broth (LB) ([…] Tryptone, 5 mg/ml yeast extract, 5 mg/mL NaCl, pH 7.5). Sample A is the blank sample, i.e. no sulfur metabolizing enzymes were added. Samples B-D include 0.5 mL of cultured sulfate-reducing bacteria (SRBs) from produced water sources. […]
# Sample E includes 0.5 mL of supernatant after the same cultured SRBs were additionally sonicated. A QSonic sonicator sonicated the cultured SRBs for one minute cycles at 70% amplitude. The cell debris was removed via centrifugation at 3000 RPM for 25 minutes. 0.5 mL of the remaining supernatant was added to Sample E.
# The remaining supernatant was filtered through a […] pore size PVDF membrane. […]
# Samples 1-9 included the same components as that of Sample F from Example 1, i.e. 0.5 mL of the sterile, enzyme-containing, supernatant. […] Samples 1-9 were incubated at 37° C. and monitored periodically. […]
row,Compound,inactivation of sulfur producing enzymes
1,"CCCCCCCCCCCCOS(=O)(=O)[O-].[Na+] [SDS, sodium dodecyl sulfate]",effective in permanently inactivating enzymes
2,"NC(=O)CI [Iodoacetamide, iodoacetamide]",effective in permanently inactivating enzymes
